Data: US9334280B2, “Synthetic rigidin analogues as anticancer agents, salts, solvates and prodrugs thereof, and method of producing same” (New Mexico Technical Research Foundation, priority 2012, dated 2016)
Read-outs that look alike come from different tables or passages of the source.

Key:
[1] = tested on: MCF-7 mammary gland adenocarcinoma cells; experiment: MTT antiproliferative assay, MCF-7; type: cell-based; conditions: Homo sapiens
Protocol: (§1) Human T-cell leukemia cell line Jurkat (ATCC TIB-152, E6-1 clone) was cultured in RPMI-1640 (Invitrogen) supplemented with 10% FBS (Invitrogen), 100 mg/L penicillin G, 100 mg/L streptomycin, 1.0 mM sodium pyruvate, 1.5 g/L sodium bicarbonate, and 4.5 g/L glucose (all from Sigma). Human cervical cancer cell line HeLa (ATCC S3) was cultured in DMEM (Invitrogen) supplemented with 10% FBS, 100 mg/L penicillin G, and 100 mg/L streptomycin. MCF-7 (human mammary carcinoma) cells were cultured in DMEM supplemented with 1.0 mM sodium pyruvate, 1% GlutaMax™-1 (Invitrogen), 100 μg/mL penicillin, 100 μg/mL streptomycin, and 10% FBS. Human uterine sarcoma MES-SA and MES-SA/Dx5 cells were cultured in RPMI-1640 medium supplemented with 10% FBS, 100 mg/L penicillin G and 100 mg/L streptomycin. All cells were incubated at 37° C. in a humidified atmosphere with 5% CO2. The other cell lines were maintained in a similar fashion as previously described.
(§2) To evaluate antiproliferative properties of the compounds of Formula I, mitochondrial dehydrogenase activities were measured using the MTT assay. The cell lines were prepared by trypsinizing and seeding […] cells per well into microplates. All compounds were reconstituted in dimethyl sulfoxide (DMSO) at a concentration of either 100 mM or 25 mM prior to treatment. The cells were grown for 24 hrs before treatment at concentrations ranging from 0.004 to 100 microM and incubated for 48 hrs in 200 microL media. 20 microL of MTT reagent in serum free medium (5 mg/mL) was added to each well and incubated further for 2 hrs. Media was removed and the resulting formazan crystals were re-solubilized in 100 microL of DMSO and the optical density (OD) was measured using a Thermomax Molecular Device plate reader at a wavelength of 490 nm. The experiments were performed in quadruplicate and repeated at least twice for each compound per cell line. Cells treated with 0.1% DMSO were used as a negative control, while phenyl arsine oxide (PAO) was used as a positive killing control.
(§3) Human cancer cell lines were obtained from the American Type Culture Collection (ATCC, Manassas, Va., USA), the European Collection of Cell Culture (ECACC, Salisbury, UK) and the Deutsche Sammlung von Mikroorganismen and Zellkulturen (DSMZ, Braunschweig, Germany). Human cervical adenocarcinoma HeLa cells were cultured in DMEM supplemented with 10% fetal bovine serum (FBS). Human mammary carcinoma MCF-7 cells were cultured in RPMI supplemented with 10% FBS. The U87 and U373 cells were cultured in DMEM culture medium (Lonza code 12-136F, Vervier, Belgium), while the SKMEL-28 and A549 cells were cultured in RPMI culture medium (Lonza; code 12-115F) supplemented with 10% heat-inactivated FBS (Lonza, FBS South America code DE14-801F). […] All cell lines were cultured in T25 flasks, maintained and grown at 37° C., 95% humidity, 5% CO2.
(§4) To evaluate antiproliferative properties of the synthesized compounds, the MTT assay was used. The cell lines were assessed by trypsinizing each cell line and seeding 4×10^3 cells per well into 96-well plates. All compounds were dissolved in DMSO at a concentration of either 100 mM or 50 mM prior to cell treatment. The cells were grown for 24 h and then treated with compounds at concentrations ranging from 0.04 to 100 μM and incubated for 48 h in 200 μL media. 20 μL of MTT reagent in serum free medium (5 mg/mL) was added to each well and incubated further for 2 h. Media was removed, and the resulting formazan crystals were re-solubilized in 200 μL of DMSO. A490 was measured using a Thermomax Molecular Device plate reader. The experiments were performed in quadruplicate and repeated at least twice for each compound per cell line. Cells treated with 0.1% DMSO were used as a control, and 1 μM phenyl arsine oxide (PAO) was used as a positive killing control.

[2] = tested on: HeLa cervical adenocarcinoma cells; experiment: MTT antiproliferative assay, HeLa; type: cell-based; conditions: Homo sapiens
Protocol: as §1, §2, §3, §4

[3] = MCF7, Table 5, 48 h, MTT, ± SD, read-out: cell viability GI50, MCF-7
[4] = Table 5, 48 h, MTT, ± SD, read-out: cell viability GI50, HeLa
[5] = MCF7, Table 1, 48 h treatment, MTT, ± SD, read-out: GI50 in vitro Values, MCF-7
[6] = Table 1, 48 h treatment, MTT, ± SD, read-out: GI50 in vitro Values, HeLa

Row | SMILES | GI50 [1, 3] | GI50 [2, 4] | GI50 [1, 5] | GI50 [2, 6] | other results
1 | O=C(c1ccccc1)c1[nH]c2[nH]c(=O)[nH]c(=O)c2c1-c1ccccc1 [Compound 2] | > 50 µM | > 50 µM | – | – | –
2 | O=C(c1ccccc1)c1[nH]c2[nH]c(-c3ccccc3)nc(=O)c2c1-c1ccccc1 [Compound 3, 6-Benzoyl-2-phenyl-5-phenyl-1H-pyrrolo[2,3-d]pyrimidin-4(7H)-one] | > 50 µM | > 50 µM | – | – | –
3 | O=C(c1ccccc1)c1[nH]c2[nH]c(-c3cccnc3)nc(=O)c2c1-c1ccccc1 [Compound 4] | > 50 µM | > 50 µM | – | – | –
4 | CCOC(=O)c1nc(=O)c2c(-c3ccccc3)c(C(=O)c3ccccc3)[nH]c2[nH]1 [Compound 7] | > 50 µM | > 50 µM | – | – | –
5 | CCOC(=O)CCc1nc(=O)c2c(-c3ccccc3)c(C(=O)c3ccccc3)[nH]c2[nH]1 [Compound 10, 6-Benzoyl-2-(2-ethoxycarbonylethyl)-5-phenyl-1H-pyrrolo[2,3-d]pyrimidin-4(7H)-one] | 0.93 ± 0.07 µM | 0.78 ± 0.05 µM | – | – | –
6 | CCCCc1nc(=O)c2c(-c3ccccc3)c(C(=O)c3ccccc3)[nH]c2[nH]1 [Compound 11, 6-Benzoyl-2-butyl-5-phenyl-1H-pyrrolo[2,3-d]pyrimidin-4(7H)-one] | 0.23 ± 0.01 µM | 0.34 ± 0.01 µM | – | – | –
7 | CCc1nc(=O)c2c(-c3ccccc3)c(C(=O)c3ccccc3)[nH]c2[nH]1 [Compound 12] | 1.1 ± 0.1 µM | 0.92 ± 0.11 µM | – | – | –
8 | O=C(c1ccccc1)c1[nH]c2[nH]c(CF)nc(=O)c2c1-c1ccccc1 [Compound 14] | 3.2 ± 0.2 µM | 3 ± 0.2 µM | – | – | –
9 | O=C(c1ccccc1)c1[nH]c2[nH]c(C(F)F)nc(=O)c2c1-c1ccccc1 [Compound 15, 6-Benzoyl-2-(difluoromethyl)-5-phenyl-1H-pyrrolo[2,3-d]pyrimidin-4(7H)-one] | 4.2 ± 0.5 µM | 5.1 ± 0.2 µM | – | – | –
10 | O=C(c1ccccc1)c1[nH]c2[nH]c(C(F)(F)F)nc(=O)c2c1-c1ccccc1 [Compound 16, 6-Benzoyl-5-phenyl-2-(trifluoromethyl)-1H-pyrrolo[2,3-d]pyrimidin-4(7H)-one] | 21.1 ± 1.1 µM | 21.5 ± 0.4 µM | – | – | –
11 | COc1ccc(C(=O)c2[nH]c3[nH]cnc(=O)c3c2-c2cc(Br)cc(Br)c2)cc1 [Rig10, 5-(3,5-Dibromophenyl)-6-(4-methoxybenzoyl)-1H-pyrrolo[2,3-d]pyrimidin-4(7H)-one] | – | – | 0.11 ± 0.035 µM | 0.3 ± 0.07 µM | –
12 | O=C(c1ccc(OCc2ccccc2)cc1)c1[nH]c2[nH]cnc(=O)c2c1-c1cc(Br)cc(Br)c1 [Rig11, 6-(4-(Benzyloxy)benzoyl)-5-(3,5-dibromophenyl)-1H-pyrrolo[2,3-d]pyrimidin-4(7H)-one] | – | – | 0.31 ± 0.01 µM | 0.4 ± 0.01 µM | –
13 | O=C(c1ccc(F)cc1)c1[nH]c2[nH]cnc(=O)c2c1-c1cc(Br)cc(Br)c1 [Rig13, 5-(3,5-Dibromophenyl)-6-(4-fluorobenzoyl)-1H-pyrrolo[2,3-d]pyrimidin-4(7H)-one] | – | – | 0.8 ± 0.01 µM | 6 ± 1 µM | –
14 | O=C(c1ccc(Br)cc1)c1[nH]c2[nH]cnc(=O)c2c1-c1cc(Br)cc(Br)c1 [Rig14, 6-(4-Bromobenzoyl)-5-(3,5-dibromophenyl)-1H-pyrrolo[2,3-d]pyrimidin-4(7H)-one] | – | – | 0.6 ± 0.1 µM | 2 ± 1 µM | –
15 | COc1ccc(C(=O)c2[nH]c3[nH]cnc(=O)c3c2-c2cc(OC)c(OC)c(OC)c2)cc1 [Rig19, 6-(4-Methoxybenzoyl)-5-(3,4,5-trimethoxyphenyl)-1H-pyrrolo[2,3-d]pyrimidin-4(7H)-one] | – | – | – | – | GI50 ([1]; MCF7, 48 h, read-out: GI50 in vitro Values, MCF-7): 7 ± 1 µM; GI50 ([2]; 48 h, read-out: GI50 in vitro Values, HeLa): > 100 µM
16 | O=C(c1ccccc1)c1[nH]c2[nH]cnc(=O)c2c1-c1cccc(Br)n1 [Rig30, 6-Benzoyl-5-(6-bromopyridin-2-yl)-1H-pyrrolo[2,3-d]pyrimidin-4(7H)-one] | – | – | 0.135 ± 0.075 µM | 0.15 ± 0.05 µM | –
17 | COc1cc(-c2c(C(=O)c3ccccc3)[nH]c3[nH]cnc(=O)c23)cc(I)c1OC [Rig31, 6-Benzoyl-5-(3-iodo-4,5-dimethoxyphenyl)-1H-pyrrolo[2,3-d]pyrimidin-4(7H)-one] | – | – | 40 ± 4 µM | 8 ± 1 µM | –
18 | COc1cc(-c2c(C(=O)c3ccccc3)[nH]c3[nH]cnc(=O)c23)cc(Br)c1OC [Rig32, 6-Benzoyl-5-(3-bromo-4,5-dimethoxyphenyl)-1H-pyrrolo[2,3-d]pyrimidin-4(7H)-one] | – | – | 10 ± 5 µM | 7 ± 1 µM | –
19 | O=C(c1ccccc1)c1[nH]c2[nH]cnc(=O)c2c1-c1cccc(Br)c1 [Rig33, 6-Benzoyl-5-(3-bromophenyl)-1H-pyrrolo[2,3-d]pyrimidin-4(7H)-one] | – | – | 0.06 ± 0.02 µM | 0.13 ± 0.05 µM | –
20 | O=C(c1ccccc1)c1[nH]c2[nH]cnc(=O)c2c1-c1cccc(Cl)c1 [Rig34, 6-Benzoyl-5-(3-chlorophenyl)-1H-pyrrolo[2,3-d]pyrimidin-4(7H)-one] | – | – | 0.06 ± 0.02 µM | 0.1 ± 0.07 µM | –
21 | O=C(c1ccccc1)c1[nH]c2[nH]cnc(=O)c2c1-c1cccc(I)c1 [Rig36, 6-Benzoyl-5-(3-iodophenyl)-1H-pyrrolo[2,3-d]pyrimidin-4(7H)-one] | – | – | 0.15 ± 0.06 µM | 0.2 ± 0.1 µM | –
22 | O=C(c1ccccc1)c1[nH]c2[nH]cnc(=O)c2c1-c1c(Cl)cccc1Cl [Rig40, 6-Benzoyl-5-(2,6-dichlorophenyl)-1H-pyrrolo[2,3-d]pyrimidin-4(7H)-one] | – | – | 2.2 ± 0.3 µM | 4.88 ± 0.07 µM | –
23 | O=C(c1ccccc1)c1[nH]c2[nH]cnc(=O)c2c1-c1cccnc1 [Rig41, 6-Benzoyl-5-(pyridin-3-yl)-1H-pyrrolo[2,3-d]pyrimidin-4(7H)-one] | – | – | 1.26 ± 0.18 µM | 0.888 ± 0.061 µM | –
24 | O=C(c1ccccc1)c1[nH]c2[nH]cnc(=O)c2c1-c1cccc(O)c1 [Rig42, 6-Benzoyl-5-(3-hydroxyphenyl)-1H-pyrrolo[2,3-d]pyrimidin-4(7H)-one] | – | – | 1.1 ± 0.12 µM | 0.86 ± 0.06 µM | –
25 | N#Cc1cccc(-c2c(C(=O)c3ccccc3)[nH]c3[nH]cnc(=O)c23)c1 [Rig43, 3-(6-Benzoyl-4-oxo-4,7-dihydro-1H-pyrrolo[2,3-d]pyrimidin-5-yl)benzonitrile] | – | – | 0.251 ± 0.017 µM | 0.187 ± 0.009 µM | –
26 | O=C(c1ccc(O)cc1)c1[nH]c2[nH]cnc(=O)c2c1-c1ccccc1 [Rig45, 6-(4-Hydroxybenzoyl)-5-phenyl-1H-pyrrolo[2,3-d]pyrimidin-4(7H)-one] | – | – | 0.261 ± 0.05 µM | 0.303 ± 0.005 µM | –
